Test results reported in patent US10100061B2, “Oxazepine compound and agricultural/horticultural insecticide containing said compound as active ingredient, and method for using the same” (NIHON NOHYAKU CO., LTD., priority 2014, dated 2018).

Legend:
[1] = tested on: Green Peach Aphid (Myzus Persicae); experiment: Test of preventive value against green peach aphid (Test Example 1); assay type: in vivo; conditions: 500 ppm, sprayed over stems and leaves of potted Chinese cabbages, sixth day after spraying
[2] = tested on: Small Brown Planthopper (Laodelphax Striatellus); experiment: Test of insecticidal efficacy against small brown planthopper (Test Example 2); assay type: in vivo; conditions: 500 ppm, rice plants soaked 30 seconds, third-instar larvae, eight days after inoculation; criteria same as in Test Example 1
Text: Test of Insecticidal Efficacy Against Small Brown Planthopper (Laodelphax Striatellus)

In the case of `CCSC1=Nc2cc(F)ccc2Oc2cn(-c3cccnc3)nc21` [11-19], the “Preventive value, judgment” value [1] was “A to D” and the “Corrected insect mortality, judgment” value [2] was “A to D”.

With `CN1C(=O)c2nn(-c3cccnc3)cc2Oc2ccncc21` [12-1] the “Preventive value, judgment” value [1] was “A to D” and the “Corrected insect mortality, judgment” value [2] was “A to D”.

For `CN1C(=O)c2nn(-c3cccnc3)cc2Oc2nccnc21` [13-1], the “Preventive value, judgment” value [1] was “A to D” and the “Corrected insect mortality, judgment” value [2] was “A to D”.

With `Cc1nn(C)c2c1N(CC#N)C(=O)c1nn(-c3cccnc3)cc1O2` [14-5] the “Preventive value, judgment” value [1] was “A to D” and the “Corrected insect mortality, judgment” value [2] was “A to D”.

With `O=C1Nc2ccccc2Oc2cn(-c3cccnc3)nc21` [Compound No. 1-1, 2-(pyridine-3-yl)-2H-benzo [b]pyrazolo [3,4-f][1,4]oxazepine-10 (9H)-one] the “Preventive value, judgment” value [1] was “A to D” and the “Corrected insect mortality, judgment” value [2] was “A to D”.

With `CN1C(=O)c2nn(-c3cccnc3)cc2Oc2ccccc21` [Compound No. 1-2, 9-methyl-2-(pyridine-3-yl)-2H-benzo [b]pyrazolo [3,4-f][1,4]oxazepine-10 (9H)-one] the “Preventive value, judgment” value [1] was “A to D” and the “Corrected insect mortality, judgment” value [2] was “A to D”.

With `CN1C(=O)c2nn(-c3cccnc3)cc2Oc2cc(F)ccc21` [Compound No. 1-11, 6-fluoro-9-methyl-2-(pyridine-3-yl)-2H-benzo [b]pyrazolo [3,4-f][1,4]oxazepine-10 (9H)-one] the “Preventive value, judgment” value [1] was “A to D” and the “Corrected insect mortality, judgment” value [2] was “A to D”.

In the case of `N#CCN1C(=O)c2nn(-c3cccnc3)cc2Oc2cc(F)ccc21` [Compound No. 1-13, 2-(6-fluoro-10-oxo-2-(pyridine-3-yl)-2H-benzo [b]pyrazolo [3,4-f][1,4]oxazepine-9 (10H)-yl) acetonitrile], the “Preventive value, judgment” value [1] was “A to D” and the “Corrected insect mortality, judgment” value [2] was “A to D”.

For `CN1C(=S)c2nn(-c3cccnc3)cc2Oc2ccccc21` [Compound No. 2-2, 9-methyl-2-(pyridine-3-yl)-2H-benzo [b]pyrazolo [3,4-f][1,4]oxazepine-10 (9H)-thione], the “Preventive value, judgment” value [1] was “A to D” and the “Corrected insect mortality, judgment” value [2] was “A to D”.

With `Fc1ccc2c(c1)NCc1nn(-c3cccnc3)cc1O2` [Compound No. 3-6, 7-fluoro-2-(pyridine-3-yl)-9,10-dihydro-2H-benzo [b]pyrazolo [3,4-f][1,4]oxazepine] the “Preventive value, judgment” value [1] was “A to D” and the “Corrected insect mortality, judgment” value [2] was “A to D”.
